Molecules are shown by their SMILES. Read-outs that look alike come from different tables or passages of the source.

One data set is described as follows: in vivo. Particulars: female, F1 CBAxC57B1 hybrids, mouse, iv, total radioactivity.
The test system of data set [1] is B16 melanoma. The experiment in a line: potency distribution in mice with tangled B16 melanoma after IV administration (direct radiometry of organs and tissues). Particulars: for Urinary bladder: full urinary bladder; for Blood: mice with B16 melanoma.
Protocol: (§1) In vivo experiments were conducted using laboratory female mice (F1 CBAxC57B1 hybrids, 18-20g). The animals were obtained from the brooder of the Biomedical Technology Research Centre at the Russian Academy of Medical Sciences in Andreevka. Pigmented B16 mice melanoma was tangled. B16 melanoma cells suspension was administered SC in aseptic conditions. Tumour growth was investigated visually. The animals were enrolled into the experiment 9-12 days after the inoculation, when the tumour diameter was 8-12cm.
(§2) During the experiment the animals were housed in standard conditions (special room, recommended food, free access to fresh water, natural lighting).
(§3) Urinary bladder filling was achieved by suturing the outer urethral orifice. The radioactivity in the sampled organs and tissues was measured by the direct radiometry method. 5 experiments were conducted, at least 3 animals were used for each experimental point.
Assay in data set [2]: as above
Protocol: as §1, §2, §3
Particulars: female, F1 CBAxC57B1 hybrids, mouse, tumour and muscle, iv, total radioactivity.

Data set [3] concerns B16 melanoma. Particulars: mouse, in vivo.
Protocol: as §1, §2, §3

Protocol for in vivo: as §1, §2, §3

For the molecule `C[C@@H](O)[C@H](NC(=O)[C@@H]1CSSC[C@H](NC(=O)[C@H](CCCCN)NC(=O)CN2CCN(CC(=O)O)CCN(CC(=O)O)CCN(CC(=O)O)CC2)C(=O)N[C@@H](Cc2ccc(O)cc2)C(=O)N[C@H](Cc2c[nH]c3ccccc23)C(=O)N[C@@H](CCCCN)C(=O)N[C@@H]([C@@H](C)O)C(=O)N1)C(=O)O` [1a, marked ^68Ga, metal not drawn], in the data set “in vivo”, the tissue to tissue ratio at 0.5 h is 2.4.
For the molecule `C[C@@H](O)[C@H](NC(=O)[C@@H]1CSSC[C@H](NC(=O)[C@@H](N)CCCCNC(=O)CN2CCN(CC(=O)O)CCN(CC(=O)O)CCN(CC(=O)O)CC2)C(=O)N[C@@H](Cc2ccc(O)cc2)C(=O)N[C@H](Cc2c[nH]c3ccccc23)C(=O)N[C@@H](CCCCN)C(=O)N[C@@H]([C@@H](C)O)C(=O)N1)C(=O)O` [1b, marked ^68Ga, metal not drawn], in the data set with B16 melanoma [1] (30 min after IV administration), the Kidneys is 3.4 ± 0.3 % of the administered dose, the Liver was 1.8 ± 0.7 % of the administered dose, the Muscle stood at 0.6 ± 0.1 %/g and the Tumour came out at 2.5 ± 0.7 %/g. Further, in the data set on B16 melanoma [1] (30 min after IV administration), the Urinary bladder is 53.4 ± 7.7 % of the administered dose and the Blood is reported as 2.4 ± 0.4 % of the administered dose. Moreover, in the data set on B16 melanoma [1] (60 min after IV administration), the Kidneys was 5.4 ± 0.6 % of the administered dose, the Liver was 1.1 ± 0.1 % of the administered dose, the Muscle turned out to be 0.06 ± 0.01 %/g and the Tumour was found to be 1.2 ± 0.2 %/g. Also, in the data set on B16 melanoma [1] (60 min after IV administration), the Urinary bladder is recorded as 35.5 ± 3.1 % of the administered dose and the Blood is reported as 0.5 ± 0.07 % of the administered dose. In addition, in data set [2], the tissue to tissue ratio at 0.5 h turned out to be 4.2.
As to `C[C@@H](O)[C@H](NC(=O)[C@@H]1CSSC[C@H](NC(=O)[C@H](CCCCN)NC(=O)CN2CCN(CC(=O)O)CCN(CC(=O)O)CCN(CC(=O)O)CC2)C(=O)N[C@@H](Cc2ccc(O)cc2)C(=O)N[C@H](Cc2c[nH]c3ccccc23)C(=O)N[C@@H](CCCCN)C(=O)N[C@@H]([C@@H](C)O)C(=O)N1)C(=O)O` [Compound 1a], in the data set with B16 melanoma [3], the “accumulation in tumour as compared to ^68Ga-marked DE” value is listed as “larger”, the “blood clearance as compared to ^68Ga-marked DE” value is given as “faster blood clearance” and the “renal clearance as compared to ^68Ga-marked DE” value is given as “faster renal clearance”. Moreover, the tissue to tissue ratio at 1 h in the data set “in vivo” amounted to 7.5.
Consider `C[C@@H](O)[C@H](NC(=O)[C@@H]1CSSC[C@H](NC(=O)[C@@H](N)CCCCNC(=O)CN2CCN(CC(=O)O)CCN(CC(=O)O)CCN(CC(=O)O)CC2)C(=O)N[C@@H](Cc2ccc(O)cc2)C(=O)N[C@H](Cc2c[nH]c3ccccc23)C(=O)N[C@@H](CCCCN)C(=O)N[C@@H]([C@@H](C)O)C(=O)N1)C(=O)O` [Compound 1b], for which, in the data set with B16 melanoma [1] (60 min after administration, fold higher than DE), the “accumulation in tumour as compared to ^68Ga-marked comparison substance” value is recorded as 2.4 times. Besides, in the data set on B16 melanoma [1] (^68Ga-marked, in words), the “accumulation in tumour as compared to ^68Ga-marked DE” value was “larger”, the “blood clearance as compared to ^68Ga-marked DE” value is recorded as “faster blood clearance” and the “renal clearance as compared to ^68Ga-marked DE” value was “faster renal clearance”. In addition, the “ratio of accumulation in tumour and muscle as compared to DE” value in the data set with B16 melanoma [1] (both in 30 and in 60 minutes after administration, in words) is “higher”. Moreover, the tissue to tissue ratio at 1 h in data set [2] was determined as 20.
For `C[C@@H](O)[C@H](NC(=O)[C@@H]1CSSC[C@H](NC(=O)[C@@H](Cc2ccccc2)NC(=O)CN2CCN(CC(=O)O)CCN(CC(=O)O)CCN(CC(=O)O)CC2)C(=O)N[C@@H](Cc2ccc(O)cc2)C(=O)N[C@H](Cc2c[nH]c3ccccc23)C(=O)N[C@@H](CCCCN)C(=O)N[C@@H]([C@@H](C)O)C(=O)N1)C(=O)O` [DE, marked ^68Ga, metal not drawn, reference compound], in the data set on B16 melanoma [1] (30 min after IV administration), the Kidneys was 1.6 ± 0.6 % of the administered dose, the Liver was 2.8 ± 1.5 % of the administered dose, the Muscle is 0.6 ± 0.04 %/g and the Tumour came out at 1.0 ± 0.2 %/g. Besides, in the data set with B16 melanoma [1] (30 min after IV administration), the Blood was 2.6 ± 0.5 % of the administered dose. In the data set on B16 melanoma [1] (60 min after IV administration), the Kidneys is on record as 1.6 ± 0.6 % of the administered dose, the Liver was 2.8 ± 0.5 % of the administered dose, the Muscle came out at 0.5 ± 0.04 %/g and the Tumour turned out to be 0.5 ± 0.24 %/g. Besides, in the data set with B16 melanoma [1] (60 min after IV administration), the Blood is on record as 2.6 ± 0.6 % of the administered dose.

Source of the values: patent EP2695891B1, “OCTAPEPTIDE, RADIOPHARMACEUTICAL AGENT BASED THEREON AND METHOD FOR DIAGNOSING TUMORS” (Aktsionernoe Obschestvo "Pharm-Sintez", priority 2011, dated 2018).
